{"source": "patent US11795145B2", "about": "“Methane-production inhibitor composition and method for inhibiting methane production” (KUMIAI CHEMICAL INDUSTRY CO., LTD., priority 2020, dated 2023)", "key": {"[1]": {"test_system": "paddy field soil microorganisms", "test": "Test Example 3: comparative test of methane-production inhibition with existing inhibitor BES in flooded paddy field soil (headspace GC)", "format": "cell-based", "conditions": "0.5 mg/kg dry soil; for Methane-production amount (mg/L) 21 days after treatment: 21 days static incubation at 30° C., untreated plot 69.3; for Methane-production amount (mg/L) 28 days after treatment: 28 days static incubation at 30° C., untreated plot 119.2", "description": "In a glass vial (21.5 mL volume) for headspace analysis, 4.0 g of paddy field soil (provisional specific gravity 1.18 g/cm^3) was weighed, and 8 mL of distilled water was added. In this flooded soil, a plot to which 20 μL of acetone solution containing 100 ppm of Compound I-1 was added (0.5 mg/kg dry soil (equivalent to 590 g/ha)) is provided as Example 10, a plot to which 20 μL of an aqueous solution containing 100 ppm of BES (a comparative compound) and acetone was added (0.5 mg/kg dry soil) is provided as Comparative Example 3, and an untreated plot to which 20 μL of acetone was added is provided as Comparative Example 4. After 100 μL of a culture solution of paddy field soil microorganisms was added to these glass vials, the vials were tightly sealed using septum and aluminum caps, and allowed to stand at 30° C. for static incubation. After 21 and 28 days of incubation treatment, 0.5 mL of gas was collected from a headspace in a glass vial sample using a gas tight syringe and analyzed for methane production by gas chromatography (GC). The comparative compound, BES (CAS No.: 4263-52-9; 2-Bromoethanesulfonate), is an existing methane-production inhibitor and a product manufactured by Tokyo Chemical Industry Co., Ltd."}, "[2]": {"test_system": "methane-producing bacteria", "conditions": "80 mg/kg; paddy fields during rice cultivation; cited from earlier work"}, "[3]": {"test_system": "dairy cattle", "conditions": "feed treated with from 40 to 80 mg/kg; cited from earlier work"}, "[4]": {"test_system": "paddy field soil microorganisms", "test": "Test Example 1: methane-production inhibition test by Compound I-1 in flooded paddy field soil (headspace GC)", "format": "cell-based", "conditions": "for Methane-production amount (mg/L) 21 days after treatment: 21 days static incubation at 30° C., untreated plot 34.0; for Methane-production amount (mg/L) 28 days after treatment: 28 days static incubation at 30° C., untreated plot 38.9", "description": "In a glass vial (21.5 mL volume) for headspace analysis, 4.0 g of paddy field soil (provisional specific gravity 1.18 g/cm^3) was weighed, and 8 mL of distilled water was added. In this flooded soil, a plot to which 40 μL of 10 ppm Compound I-1-containing acetone solution was added (0.1 mg/kg dry soil (equivalent to 118 g/ha)) was provided as Example 1, and a plot to which 20 μL of 100 ppm Compound I-1-containing acetone solution was added (0.5 mg/kg dry soil (equivalent to 590 g/ha)) and a plot to which 40 μL of 100 ppm Compound I-1-containing acetone solution was added (1 mg/kg dry soil (equivalent to 1180 g/ha)) were provided as Examples 2 and 3. As Comparative Example 1, an untreated plot to which 40 μL of acetone was added was provided. After 100 μL of a culture solution of paddy field soil microorganisms was added to these glass vials, the vials were tightly sealed using septum and aluminum caps, and allowed to stand at 30° C. for static incubation. After 21 and 28 days of incubation treatment, 0.5 mL of gas was collected from a headspace in a glass vial sample using a gas tight syringe and analyzed for methane production by gas chromatography (GC). The amount treatment (g) per 1 ha was converted according to the OECD Guideline Test No. 307 issued in 2002, based on the provisional specific gravity of the paddy field soil used."}, "[5]": {"test_system": "paddy field soil microorganisms", "test": "Test Example 2: methane-production inhibition test by various methane-production inhibitors in flooded paddy field soil (headspace GC)", "format": "cell-based", "conditions": "for Methane-production amount compared to untreated plot: 0.5 mg/kg dry soil treatment; for Methane-production amount (mg/L) 21 days after treatment / Methane-production amount (mg/L) 28 days after treatment: 0.5 mg/kg dry soil; for Methane-production amount (mg/L) 21 days after treatment: 21 days static incubation at 30° C., untreated plot 19.6; for Methane-production amount (mg/L) 28 days after treatment: 28 days static incubation at 30° C., untreated plot 44.3", "description": "In a glass vial (21.5 mL volume) for headspace analysis, 4.0 g of paddy field soil (provisional specific gravity 1.18 g/cm^3) was weighed, and 8 mL of distilled water was added. In this flooded soil, plots to which 40 μL of acetone solution containing 50 ppm of the compounds listed in Table 2 below were added (0.5 mg/kg dry soil (equivalent to 590 g/ha)), respectively, were provided as Examples 4 to 9. As Comparative Example 2, an untreated plot to which 40 μL of acetone was added was provided. After 100 μL of a culture solution of paddy field soil microorganisms was added to these glass vials, the vials were tightly sealed using septum and aluminum caps, and allowed to stand at 30° C. for static incubation. After 21 and 28 days of incubation treatment, 0.5 mL of gas was collected from a headspace in a glass vial sample using a gas tight syringe and analyzed for methane production by gas chromatography (GC)."}}, "data": [{"compound": "O=S(=O)([O-])CCBr.[Na+]", "note": "[BES, 2-Bromoethanesulfonate, reference compound]", "values": [{"measurement": "Methane-production amount compared to untreated plot", "setting": "[1]", "value": "reduced"}, {"measurement": "Methane-production amount (mg/L) 21 days after treatment", "setting": "[1]", "value": 32.9, "unit": "mg/L"}, {"measurement": "Methane-production amount (mg/L) 28 days after treatment", "setting": "[1]", "value": 80.5, "unit": "mg/L"}, {"measurement": "Reduction of methane emissions compared to a control area", "setting": "[2]", "value": 49, "unit": "%"}]}, {"compound": "O=[N+]([O-])OCCCO", "note": "[Compound 3-NOP, 3-nitrooxypropanol]", "values": [{"measurement": "Reduction of methane emissions from dairy cattle", "setting": "[3]", "value": 30, "unit": "%"}]}, {"compound": "O=C(Oc1ccc(OS(=O)(=O)CCl)cc1)c1ccccc1", "note": "[Compound I-1]", "values": [{"measurement": "Methane-production amount compared to untreated plot", "setting": "[4]; 0.1 mg/kg dry soil (Example 1)", "value": "reduced"}, {"measurement": "Methane-production amount (mg/L) 21 days after treatment", "setting": "[4]; 0.1 mg/kg dry soil", "value": 9.1, "unit": "mg/L"}, {"measurement": "Methane-production amount (mg/L) 28 days after treatment", "setting": "[4]; 0.1 mg/kg dry soil", "value": 21.3, "unit": "mg/L"}, {"measurement": "Methane-production reduction effect compared to untreated plot", "setting": "[4]; 0.5 mg/kg dry soil and above (Examples 2 and 3)", "value": "higher reduction effect"}, {"measurement": "Methane-production amount (mg/L) 21 days after treatment", "setting": "[4]; 0.5 mg/kg dry soil", "value": 2.8, "unit": "mg/L"}, {"measurement": "Methane-production amount (mg/L) 28 days after treatment", "setting": "[4]; 0.5 mg/kg dry soil", "value": 3.7, "unit": "mg/L"}, {"measurement": "Methane-production amount (mg/L) 21 days after treatment", "setting": "[4]; 1 mg/kg dry soil", "value": 2.5, "unit": "mg/L"}, {"measurement": "Methane-production amount (mg/L) 28 days after treatment", "setting": "[4]; 1 mg/kg dry soil", "value": 3.1, "unit": "mg/L"}, {"measurement": "Methane-production amount compared to untreated plot", "setting": "[5]", "value": "particularly high reduction effect"}, {"measurement": "Methane-production amount (mg/L) 21 days after treatment", "setting": "[5]", "value": 2.5, "unit": "mg/L"}, {"measurement": "Methane-production amount (mg/L) 28 days after treatment", "setting": "[5]", "value": 3.8, "unit": "mg/L"}, {"measurement": "Methane reduction amount relative to the reduction amount due to the comparative compound", "setting": "[1]", "value": "significantly greater"}, {"measurement": "Methane-production amount compared to untreated plot", "setting": "[1]", "value": "reduced"}, {"measurement": "Methane-production amount (mg/L) 21 days after treatment", "setting": "[1]", "value": 13.4, "unit": "mg/L"}, {"measurement": "Methane-production amount (mg/L) 28 days after treatment", "setting": "[1]", "value": 34.2, "unit": "mg/L"}]}, {"compound": "O=S(=O)(CCl)Oc1ccc(O)cc1", "note": "[Compound I-2]", "values": [{"measurement": "Methane-production amount compared to untreated plot", "setting": "[5]", "value": "particularly high reduction effect"}, {"measurement": "Methane-production amount (mg/L) 21 days after treatment", "setting": "[5]", "value": 2.5, "unit": "mg/L"}, {"measurement": "Methane-production amount (mg/L) 28 days after treatment", "setting": "[5]", "value": 4.4, "unit": "mg/L"}]}, {"compound": "O=S(=O)(CCl)c1ccc(Br)cc1", "note": "[Compound I-3]", "values": [{"measurement": "Methane-production amount (mg/L) 21 days after treatment", "setting": "[5]", "value": 5.3, "unit": "mg/L"}, {"measurement": "Methane-production amount (mg/L) 28 days after treatment", "setting": "[5]", "value": 14.7, "unit": "mg/L"}]}, {"compound": "O=S(=O)(CCl)c1ccc(O)cc1", "note": "[Compound I-4]", "values": [{"measurement": "Methane-production amount (mg/L) 21 days after treatment", "setting": "[5]", "value": 5.4, "unit": "mg/L"}, {"measurement": "Methane-production amount (mg/L) 28 days after treatment", "setting": "[5]", "value": 16.7, "unit": "mg/L"}]}, {"compound": "O=S(=O)(CO)c1ccc(Br)cc1", "note": "[Compound I-5]", "values": [{"measurement": "Methane-production amount (mg/L) 21 days after treatment", "setting": "[5]", "value": 15.7, "unit": "mg/L"}, {"measurement": "Methane-production amount (mg/L) 28 days after treatment", "setting": "[5]", "value": 24.3, "unit": "mg/L"}]}, {"compound": "CS(=O)(=O)Oc1ccc(O)cc1", "note": "[Compound I-6]", "values": [{"measurement": "Methane-production amount (mg/L) 21 days after treatment", "setting": "[5]", "value": 16.7, "unit": "mg/L"}, {"measurement": "Methane-production amount (mg/L) 28 days after treatment", "setting": "[5]", "value": 28.3, "unit": "mg/L"}]}]}
